Measured values taken from patent EP1953147A1, “HETEROCYCLIC COMPOUND AND MEDICINAL APPLICATION THEREOF” (priority 2005, dated 2007).
Where a name gives a salt, the structure may show the parent alone.

The compounds below were run on ΔG/SEAP/HCV E1E2 (assay: Effect of test substance on cell infection with HCV pseudotype virus (SEAP reporter assay in HepG2 cells)). Details: Hepatitis C virus.
Format: cell-based
`O=c1c2c(c(-c3cccc(Cl)c3)nn1-c1cc(N3CC[C@H](O)C3)ccc1C(F)(F)F)CCC2` [Example 72, 4-(3-chloro-phenyl)-2-[5-((S)-3-hydroxy-pyrrolidin-1-yl)-2-trifluoromethyl-phenyl]-2,5,6,7-tetrahydro-cyclopenta[d]pyridazin-1-one] was tested, and the IC50 was under 100 nM. Work on `CNC(=O)c1ccc(C(F)(F)F)c(-n2nc(-c3cc(OC)cc(OC)c3)c3c(c2=O)CCC3)c1` [Example 1-11, 3-[4-(3,5-dimethoxy-phenyl)-1-oxo-1,5,6,7-tetrahydro-cyclopenta[d]pyridazin-2-yl]-N-methyl-4-trifluoromethyl-benzamide] yielded an IC50 of under 100 nM. `COc1cc(OC)cc(-c2nn(-c3cc(N4CC[C@H](O)C4)ccc3C(F)(F)F)c(=O)c3c2CCC3)c1` [Example 9, 4-(3,5-dimethoxy-phenyl)-2-[5-((S)-3-hydroxy-pyrrolidin-1-yl)-2-trifluoromethyl-phenyl]-2,5,6,7-tetrahydro-cyclopenta[d]pyridazin-1-one] showed an IC50 of under 100 nM. Compound `O=c1c2c(c(-c3ccc(Br)cc3)nn1-c1cc(N3CC[C@H](O)C3)ccc1C(F)(F)F)CCC2` [Example 90, 4-(4-bromo-phenyl)-2-[5-((S)-3-hydroxy-pyrrolidin-1-yl)-2-trifluoromethyl-phenyl]-2,5,6,7-tetrahydro-cyclopenta[d]pyridazin-1-one] has an IC50 of under 100 nM. `Cc1cc(-c2cnco2)cc(-c2nn(-c3cc(N4CC[C@H](O)C4)ccc3C(F)(F)F)c(=O)c3c2CCCN3)c1` [Example 1-38, 7-[5-((S)-3-hydroxy-pyrrolidin-1-yl)-2-trifluoromethylphenyl]-5-[3-methyl-5-(oxazol-5-yl)-phenyl]-1,3,4,7-tetrahydro-2H-pyrido[2,3-d]pyridazin-8-one] showed an IC50 of under 100 nM. Work on `COc1cc(OC)cc(-c2nn(-c3cc(NC(=O)CO)ccc3C(F)(F)F)c(=O)c3c2CCC3)c1` [Example 83, N-{3-[4-(3,5-dimethoxy-phenyl)-1-oxo-1,5,6,7-tetrahydro-cyclopenta[d]pyridazin-2-yl]-4-trifluoromethyl-phenyl}-2-hydroxy-acetamide] yielded an IC50 of under 100 nM. `Cc1ccccc1-c1nn(-c2cc(N3CC[C@H](O)C3)ccc2C(F)(F)F)c(=O)c2c1CCC2` [Example 133, 2-[5-((S)-3-hydroxy-pyrrolidin-1-yl)-2-trifluoromethyl-phenyl]-4-o-tolyl-2,5,6,7-tetrahydro-cyclopenta[d]pyridazin-1-one] was tested, and the IC50 was 100 to 10000 nM. For `COc1cc(-c2nn(-c3cc(N4CC[C@H](O)C4)ccc3C(F)(F)F)c(=O)c3c2CCC3)ccn1` [Example 93, 2-[5-((S)-3-hydroxy-pyrrolidin-1-yl)-2-trifluoromethyl-phenyl]-4-(2-methoxy-pyridin-4-yl)-2,5,6,7-tetrahydro-cyclopenta[d]pyridazin-1-one], the IC50 was 100 to 10000 nM. `COc1cc(OC)cc(-c2nn(-c3cc(NCCN(C)C(=O)OC(C)(C)C)ccc3C(F)(F)F)c(=O)c3c2CCC3)c1` [Example 156, (2-{3-[4-(3,5-dimethoxy-phenyl)-1-oxo-1,5,6,7-tetrahydro-cyclopenta[d]pyridazin-2-yl]-4-trifluoromethyl-phenylamino}-ethyl)-methyl-carbamic acid tert-butyl ester] gave an IC50 of 100 to 10000 nM. In the case of `COc1cc(OC)cc(-c2nn(-c3ccccc3C(F)(F)F)c(=O)c3c2CCC3)c1` [Example 107, 4-(3,5-dimethoxy-phenyl)-2-(2-trifluoromethylphenyl)-2,5,6,7-tetrahydro-cyclopenta[d]pyridazin-1-one], the IC50 is reported as 100 to 10000 nM. `COc1cc(OC)cc(-c2nn(-c3cc(N4CC[C@H](O)C4)ccc3C(F)(F)F)c(=O)c3c2CCN3CC(N)=O)c1` [Example 28, 2-{4-(3,5-dimethoxy-phenyl)-6-[5-((S)-3-hydroxy-pyrrolidin-1-yl)-2-trifluoromethyl-phenyl]-7-oxo-2,3,6,7-tetrahydro-pyrrolo[2,3-d]pyridazin-1-yl}-acetamide] showed an IC50 of under 100 nM. `COC(=O)CCNc1ccc(C(F)(F)F)c(-n2nc(-c3cc(OC)cc(OC)c3)c3c(c2=O)NCC3)c1` [Example 47, 3-{3-[4-(3,5-dimethoxy-phenyl)-7-oxo-1,2,3,7-tetrahydro-pyrrolo[2,3-d]pyridazin-6-yl]-4-trifluoromethyl-phenylamino}-propionic acid methyl ester] gave an IC50 of under 100 nM. `COc1cc(O)cc(-c2nn(-c3cc(N4CC(CO)C4)ccc3C(F)(F)F)c(=O)c3c2CCN3CCO)c1` [Example 1-44, 1-(2-hydroxy-ethyl)-4-(3-hydroxy-5-methoxyphenyl)-6-[5-(3-hydroxymethyl-azetidin-1-yl)-2-trifluoromethyl-phenyl]-1,2,3,6-tetrahydro-pyrrolo[2,3-d]pyridazin-7-one] showed an IC50 of under 100 nM. `COC(=O)CCNc1ccc(C(F)(F)F)c(-n2nc(-c3cc(OC)cc(OC)c3)c3c(c2=O)CCC3)c1` [Example 143, 3-{3-[4-(3,5-dimethoxy-phenyl)-1-oxo-1,5,6,7-tetrahydro-cyclopenta[d]pyridazin-2-yl]-4-trifluoromethyl-phenylamino}-propionic acid methyl ester] gave an IC50 of under 100 nM. `COc1cc(OC)cc(-c2nn(-c3cccc(N4CC[C@H](O)C4)n3)c(=O)c3c2CCC3)c1` [Example 1-7, 4-(3,5-dimethoxy-phenyl)-2-[6-((S)-3-hydroxy-pyrrolidin-1-yl)-pyridin-2-yl]-2,5,6,7-tetrahydro-cyclopenta[d]pyridazin-1-one] showed an IC50 of 100 to 10000 nM. `COc1cc(OC)cc(-c2nn(-c3cc(OC)ccc3C(F)(F)F)c(=O)c3c2CCC3)c1` [Example 69, 4-(3,5-dimethoxy-phenyl)-2-(5-methoxy-2-trifluoromethyl-phenyl)-2,5,6,7-tetrahydro-cyclopenta[d]pyridazin-1-one] was tested, and the IC50 was under 100 nM. Work on `COc1cc(C)cc(-c2nn(-c3cc(N4CC[C@@H](O)C4)ccc3C(F)(F)F)c(=O)c3c2CCC3)c1` [Example 23, 2-[5-((R)-3-hydroxy-pyrrolidin-1-yl)-2-trifluoromethyl-phenyl]-4-(3-methoxy-5-methyl-phenyl)-2,5,6,7-tetrahydro-cyclopenta[d]pyridazin-1-one] yielded an IC50 of under 100 nM. Compound `COc1cc(OC)cc(-c2nn(-c3cc(NCCN)ccc3C(F)(F)F)c(=O)c3c2CCC3)c1` [Example 119, 2-[5-(2-amino-ethylamino)-2-trifluoromethylphenyl]-4-(3,5-dimethoxy-phenyl)-2,5,6,7-tetrahydro-cyclopenta[d]pyridazin-1-one hydrochloride] has an IC50 of under 100 nM. Work on `O=c1c2c(c(C3=CCCC3)nn1-c1cc(N3CC[C@H](O)C3)ccc1C(F)(F)F)CCC2` [Example 1-18, 4-(cyclopent-1-enyl)-2-[5-((S)-3-hydroxy-pyrrolidin-1-yl)-2-trifluoromethyl-phenyl]-2,5,6,7-tetrahydro-cyclopenta[d]pyridazin-1-one] yielded an IC50 of 100 to 10000 nM. In the case of `COc1cc(OC)cc(-c2nn(-c3cc(NCCC4CC4)ccc3C(F)(F)F)c(=O)c3c2CCC3)c1` [Example 147, 2-[5-(2-cyclopropyl-ethylamino)-2-trifluoromethyl-phenyl]-4-(3,5-dimethoxy-phenyl)-2,5,6,7-tetrahydro-cyclopenta[d]pyridazin-1-one], the IC50 is reported as under 100 nM. Compound `O=C(O)c1ccc(-c2nn(-c3cc(N4CC[C@H](O)C4)ccc3C(F)(F)F)c(=O)c3c2CCC3)cc1` [Example 80, 4-{3-[5-((S)-3-hydroxy-pyrrolidin-1-yl)-2-trifluoromethyl-phenyl]-4-oxo-4,5,6,7-tetrahydro-3H-cyclopenta[d]pyridazin-1-yl}-benzoic acid] has an IC50 of 100 to 10000 nM. `CCOC(=O)N1CCc2c(-c3cc(O)cc(O)c3)nn(-c3cc(N4CC[C@H](O)C4)ccc3C(F)(F)F)c(=O)c21` [Example 61, 4-(3,5-dihydroxy-phenyl)-6-[5-((S)-3-hydroxy-pyrrolidin-1-yl)-2-trifluoromethyl-phenyl]-7-oxo-2,3,6,7-tetrahydro-pyrrolo[2,3-d]pyridazine-1-carboxylic acid ethyl ester] gave an IC50 of 100 to 10000 nM. `COc1cc(OC)cc(-c2nn(-c3cc(N4CC[C@H](O)C4)ccc3C(F)(F)F)c(=O)c3c2CCN3CC(=O)O)c1` [Example 27, {4-(3,5-dimethoxy-phenyl)-6-[5-((S)-3-hydroxy-pyrrolidin-1-yl)-2-trifluoromethyl-phenyl]-7-oxo-2,3,6,7-tetrahydro-pyrrolo[2,3-d]pyridazin-1-yl}-acetic acid] gave an IC50 of under 100 nM. `COc1cc(OC)cc(-c2nn(-c3cc(N4CC[C@H](O)C4)ccc3C(F)(F)F)c(=O)c3c2CCN3CCO)c1` [Example 29, 4-(3,5-dimethoxy-phenyl)-1-(2-hydroxy-ethyl)-6-[5-((S)-3-hydroxy-pyrrolidin-1-yl)-2-trifluoromethylphenyl]-1,2,3,6-tetrahydro-pyrrolo[2,3-d]pyridazin-7-one] was tested, and the IC50 was under 100 nM. `COc1cc(OC)cc(-c2nn(-c3cc(-c4cccnn4)ccc3C(F)(F)F)c(=O)c3c2CC(C)N3)c1` (centres unmarked) [Example 19, 4-(3,5-dimethoxy-phenyl)-2-methyl-6-(5-pyridazin-3-yl-2-trifluoromethyl-phenyl)-1,2,3,6-tetrahydro-pyrrolo[2,3-d]pyridazin-7-one] showed an IC50 of under 100 nM. `CC(C)Cc1nn(-c2cc(N3CC[C@H](O)C3)ccc2C(F)(F)F)c(=O)c2c1CCC2` [Example 144, 2-[5-((S)-3-hydroxy-pyrrolidin-1-yl)-2-trifluoromethyl-phenyl]-4-isobutyl-2,5,6,7-tetrahydro-cyclopenta[d]pyridazin-1-one] showed an IC50 of 100 to 10000 nM. `COc1cc(OC)cc(-c2nn(-c3cc(NCCC(N)=O)ccc3C(F)(F)F)c(=O)c3c2CCC3)c1` [Example 142, 3-{3-[4-(3,5-dimethoxy-phenyl)-1-oxo-1,5,6,7-tetrahydro-cyclopenta[d]pyridazin-2-yl]-4-trifluoromethyl-phenylamino}-propionamide] showed an IC50 of under 100 nM. For `COc1cc(OC)cc(-c2nn(-c3cc(CO)ccc3C(F)(F)F)c(=O)c3c2CCC3)c1` [Example 149, 4-(3,5-dimethoxy-phenyl)-2-(5-hydroxymethyl-2-trifluoromethyl-phenyl)-2,5,6,7-tetrahydro-cyclopenta[d]pyridazin-1-one], the IC50 was under 100 nM. In the case of `COc1cc(OC)cc(-c2nn(-c3cc(N4CCC(=O)C4)ccc3C(F)(F)F)c(=O)c3c2CCN3)c1` [Example 25, 4-(3,5-dimethoxy-phenyl)-6-[5-(3-oxo-pyrrolidin-1-yl)-2-trifluoromethyl-phenyl]-1,2,3,6-tetrahydro-pyrrolo[2,3-d]pyridazin-7-one], the IC50 is reported as under 100 nM.
